In ChEMBL document CHEMBL1142826, “Structure based approach to the design of bicyclic-1H-isoindole-1,3(2H)-dione based androgen receptor antagonists” (Bioorg Med Chem Lett, 2005):
pIC50, pKi: −log10 of the molar value.

Key:
Androgen receptor [1] = target: T1, Androgen receptor (Homo sapiens, UniProt P10275, T878A); assay: Inhibition of mutant T877A Androgen receptor in human LNCaP cells; format: cell-based
Androgen receptor [2] = target: T1, Androgen receptor; assay: biochemical
Androgen receptor [3] = target: T2, Androgen receptor (Homo sapiens, UniProt P10275)
T2 sequence (P10275 whole entry): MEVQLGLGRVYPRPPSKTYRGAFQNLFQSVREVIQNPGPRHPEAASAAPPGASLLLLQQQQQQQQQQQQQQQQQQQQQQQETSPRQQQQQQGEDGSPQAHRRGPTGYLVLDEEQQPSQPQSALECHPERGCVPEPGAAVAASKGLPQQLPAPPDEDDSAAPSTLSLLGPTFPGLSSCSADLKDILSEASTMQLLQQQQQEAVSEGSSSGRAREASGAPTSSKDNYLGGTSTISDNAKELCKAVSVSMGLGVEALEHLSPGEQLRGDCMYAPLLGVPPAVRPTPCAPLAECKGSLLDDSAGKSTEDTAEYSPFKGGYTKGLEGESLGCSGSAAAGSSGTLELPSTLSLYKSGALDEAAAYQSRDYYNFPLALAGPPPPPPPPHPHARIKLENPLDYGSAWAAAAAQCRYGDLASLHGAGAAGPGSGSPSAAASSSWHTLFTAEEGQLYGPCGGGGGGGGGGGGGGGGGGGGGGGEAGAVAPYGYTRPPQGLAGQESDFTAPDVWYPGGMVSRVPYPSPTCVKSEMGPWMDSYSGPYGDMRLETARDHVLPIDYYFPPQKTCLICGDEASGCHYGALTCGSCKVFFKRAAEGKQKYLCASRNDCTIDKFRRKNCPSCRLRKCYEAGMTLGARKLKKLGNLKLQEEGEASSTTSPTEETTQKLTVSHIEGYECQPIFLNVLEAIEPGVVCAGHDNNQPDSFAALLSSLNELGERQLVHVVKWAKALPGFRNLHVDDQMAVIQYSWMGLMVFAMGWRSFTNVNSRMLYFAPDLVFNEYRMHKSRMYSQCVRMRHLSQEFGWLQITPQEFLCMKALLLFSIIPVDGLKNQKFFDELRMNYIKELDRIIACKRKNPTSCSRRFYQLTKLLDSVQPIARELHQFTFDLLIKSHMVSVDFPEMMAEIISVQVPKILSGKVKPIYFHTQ
Description: Inhibition of androgen receptor in human MDA-453 cells

Androgen receptor [4] = target: T2, Androgen receptor; assay: Binding affinity for androgen receptor in human MDA-453 cells
Androgen receptor [5] = target: T1, Androgen receptor; assay: Inhibition of mutant T877A Androgen receptor in human LNCaP cells; Ag means agonist; format: functional, cell-based
Androgen receptor [6] = target: T2, Androgen receptor; assay: Inhibition of androgen dependent human prostate cancer cell […] proliferation; Ag means agonist; format: functional, cell-based; details: cancer cell lines

T1 sequence (P10275 whole entry T878A): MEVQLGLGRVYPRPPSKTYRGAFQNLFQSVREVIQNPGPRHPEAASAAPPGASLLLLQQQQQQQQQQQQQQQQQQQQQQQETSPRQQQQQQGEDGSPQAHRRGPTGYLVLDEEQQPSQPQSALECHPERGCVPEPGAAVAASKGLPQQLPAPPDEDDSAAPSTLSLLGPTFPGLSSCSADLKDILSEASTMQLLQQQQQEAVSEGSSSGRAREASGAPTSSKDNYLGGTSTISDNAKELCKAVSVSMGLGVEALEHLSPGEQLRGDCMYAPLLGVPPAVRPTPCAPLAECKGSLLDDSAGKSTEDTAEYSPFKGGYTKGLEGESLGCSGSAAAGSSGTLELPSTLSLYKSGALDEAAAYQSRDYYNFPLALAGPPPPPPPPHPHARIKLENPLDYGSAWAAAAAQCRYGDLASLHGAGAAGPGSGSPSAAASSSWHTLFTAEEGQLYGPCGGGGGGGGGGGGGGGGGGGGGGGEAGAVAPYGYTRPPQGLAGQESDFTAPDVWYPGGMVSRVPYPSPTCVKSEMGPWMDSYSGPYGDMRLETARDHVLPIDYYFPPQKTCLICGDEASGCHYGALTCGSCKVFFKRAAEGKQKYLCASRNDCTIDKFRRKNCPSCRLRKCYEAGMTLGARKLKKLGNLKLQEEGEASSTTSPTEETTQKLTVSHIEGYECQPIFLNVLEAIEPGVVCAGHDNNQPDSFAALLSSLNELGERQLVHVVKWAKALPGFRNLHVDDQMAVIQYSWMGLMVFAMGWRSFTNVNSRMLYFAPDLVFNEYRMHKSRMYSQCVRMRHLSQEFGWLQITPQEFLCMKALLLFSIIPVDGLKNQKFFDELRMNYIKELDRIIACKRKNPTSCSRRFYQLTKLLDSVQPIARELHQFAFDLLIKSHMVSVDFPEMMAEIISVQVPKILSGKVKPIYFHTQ

`O=C1[C@@H]2C3C=CC([C@H]4C[C@@H]34)[C@@H]2C(=O)N1c1cccc(C(F)(F)F)c1` was tested. Which pIC50 (Androgen receptor [1]) did it give?
Its pIC50 is 7.52.

And the pKi (Androgen receptor [2])?
Its pKi is 8.05.

And the pIC50 (Androgen receptor [3])?
Its pIC50 is 5.77.

How did the pKi (Androgen receptor [4]) turn out when `O=C1[C@@H]2C3C=CC([C@H]4C[C@@H]34)[C@@H]2C(=O)N1c1ccc([N+](=O)[O-])c2ccccc12` was run?
Its pKi is 8.52.

And the pIC50 (Androgen receptor [3])?
The pIC50 was 6.10.

And the IC50 (Androgen receptor [5])?
The IC50 was “Agonist”.

What about the IC50 (Androgen receptor [6]) of the same compound?
The IC50 was “Agonist”.

Which IC50 (Androgen receptor [5]) does the source give for `CC(C)(O)C(=O)Nc1ccc([N+](=O)[O-])c(C(F)(F)F)c1` [HYDROXYFLUTAMIDE] here?
Its IC50 is “Agonist”.

What about the IC50 (Androgen receptor [6]) of the same compound?
The IC50 was “Agonist”.

What does the source list for `Cc1cc(N2C(=O)[C@@H]3C4C=CC([C@H](O)[C@@H]4O)[C@@H]3C2=O)ccc1Br`?
pIC50 (Androgen receptor [1]): 7.23; pKi (Androgen receptor [4]): 6.36; pKi (Androgen receptor [2]): 7.48; pIC50 (Androgen receptor [3]): 5.28; IC50 (Androgen receptor [6]): Agonist

With `CN1C(=O)C2C=CC1[C@@H]1C(=O)N(c3ccc([N+](=O)[O-])c4ccccc34)C(=O)[C@H]21` (stereo not given in full) as the compound, how does the pIC50 (Androgen receptor [1]) read?
Its pIC50 is 6.20.

What about the pKi (Androgen receptor [4]) of the same compound?
The pKi was under 5.30.

And the pKi (Androgen receptor [2])?
Its pKi is 6.94.

What about the pIC50 (Androgen receptor [3]) of the same compound?
Its pIC50 is 5.39.

With `Cc1cc(N2C(=O)[C@@H]3C4C=CC(CC4)[C@@H]3C2=O)ccc1Br` as the compound, how does the pKi (Androgen receptor [2]) read?
Its pKi is 11.00.

And the pIC50 (Androgen receptor [3])?
Its pIC50 is 7.17.

What about the IC50 (Androgen receptor [5]) of the same compound?
The IC50 was “Agonist”.

And the IC50 (Androgen receptor [6])?
Its IC50 is “Agonist”.

How did the pKi (Androgen receptor [4]) turn out when `O=C1[C@@H]2C3C=CC(CC3)[C@@H]2C(=O)N1c1ccc(Cl)c(Cl)c1` was run?
The pKi was 7.08.

What about the pKi (Androgen receptor [2]) of the same compound?
The pKi was 7.55.

What about the pIC50 (Androgen receptor [3]) of the same compound?
Its pIC50 is 6.82.

And the IC50 (Androgen receptor [5])?
Its IC50 is “Agonist”.

And the IC50 (Androgen receptor [6])?
Its IC50 is “Agonist”.

What does the source list for `O=C1[C@@H]2C3C=CC(CC3)[C@@H]2C(=O)N1c1ccc([N+](=O)[O-])c2ccccc12`?
pKi (Androgen receptor [2]): 9.30; pIC50 (Androgen receptor [3]): 6.65; IC50 (Androgen receptor [6]): Agonist

What does the source list for `O=C1[C@@H]2C3CCC(C3)[C@@H]2C(=O)N1c1ccc([N+](=O)[O-])c(C(F)(F)F)c1`?
IC50 (Androgen receptor [5]): Agonist; IC50 (Androgen receptor [6]): Agonist

With `O=C1[C@@H]2C3C=CC(C3)[C@@H]2C(=O)N1c1ccc(Cl)c(Cl)c1` as the compound, how does the pIC50 (Androgen receptor [1]) read?
Its pIC50 is 7.39.

What about the pKi (Androgen receptor [4]) of the same compound?
Its pKi is 6.80.

What about the pKi (Androgen receptor [2]) of the same compound?
Its pKi is 8.22.

What about the pIC50 (Androgen receptor [3]) of the same compound?
Its pIC50 is 6.51.

How did the pIC50 (Androgen receptor [3]) turn out when `O=C1[C@@H]2C3C=CC(CCC3)[C@@H]2C(=O)N1c1ccc([N+](=O)[O-])c2ccccc12` was run?
The pIC50 was 7.31.

What about the IC50 (Androgen receptor [5]) of the same compound?
Its IC50 is “Agonist”.

And the IC50 (Androgen receptor [6])?
Its IC50 is “Agonist”.

How did the pIC50 (Androgen receptor [1]) turn out when `O=C1[C@@H]2C3C=CC(CC3)[C@@H]2C(=O)N1c1cccc(C(F)(F)F)c1` was run?
Its pIC50 is 7.18.

And the pKi (Androgen receptor [2])?
The pKi was 7.72.

And the pIC50 (Androgen receptor [3])?
The pIC50 was 6.71.

What does the source list for `O=C1[C@@H]2C3CCCC(CC3)[C@@H]2C(=O)N1c1cccc(C(F)(F)F)c1`?
pIC50 (Androgen receptor [1]): 7.64; pKi (Androgen receptor [2]): 7.70; pIC50 (Androgen receptor [3]): 6.18
